Legend:
[1] = target: T1, Full length human recombinant HDAC6 (Homo sapiens, UniProt Q9UBN7); assay: In vitro histone deacetylase assay, enzymatic HDAC6 (electrophoretic mobility shift assay); assay type: biochemical; details: 1 nM HDAC6; 2 μM peptide substrate FAM-RHKK(Ac)—NH2; 25° C.; 12 concentrations; read-out: HDAC6 Activity Range (IC50)
T1 construct: Full length human recombinant HDAC6 and HDAC11 proteins were expressed in baculoviral system
T1 sequence (Q9UBN7 1-1215): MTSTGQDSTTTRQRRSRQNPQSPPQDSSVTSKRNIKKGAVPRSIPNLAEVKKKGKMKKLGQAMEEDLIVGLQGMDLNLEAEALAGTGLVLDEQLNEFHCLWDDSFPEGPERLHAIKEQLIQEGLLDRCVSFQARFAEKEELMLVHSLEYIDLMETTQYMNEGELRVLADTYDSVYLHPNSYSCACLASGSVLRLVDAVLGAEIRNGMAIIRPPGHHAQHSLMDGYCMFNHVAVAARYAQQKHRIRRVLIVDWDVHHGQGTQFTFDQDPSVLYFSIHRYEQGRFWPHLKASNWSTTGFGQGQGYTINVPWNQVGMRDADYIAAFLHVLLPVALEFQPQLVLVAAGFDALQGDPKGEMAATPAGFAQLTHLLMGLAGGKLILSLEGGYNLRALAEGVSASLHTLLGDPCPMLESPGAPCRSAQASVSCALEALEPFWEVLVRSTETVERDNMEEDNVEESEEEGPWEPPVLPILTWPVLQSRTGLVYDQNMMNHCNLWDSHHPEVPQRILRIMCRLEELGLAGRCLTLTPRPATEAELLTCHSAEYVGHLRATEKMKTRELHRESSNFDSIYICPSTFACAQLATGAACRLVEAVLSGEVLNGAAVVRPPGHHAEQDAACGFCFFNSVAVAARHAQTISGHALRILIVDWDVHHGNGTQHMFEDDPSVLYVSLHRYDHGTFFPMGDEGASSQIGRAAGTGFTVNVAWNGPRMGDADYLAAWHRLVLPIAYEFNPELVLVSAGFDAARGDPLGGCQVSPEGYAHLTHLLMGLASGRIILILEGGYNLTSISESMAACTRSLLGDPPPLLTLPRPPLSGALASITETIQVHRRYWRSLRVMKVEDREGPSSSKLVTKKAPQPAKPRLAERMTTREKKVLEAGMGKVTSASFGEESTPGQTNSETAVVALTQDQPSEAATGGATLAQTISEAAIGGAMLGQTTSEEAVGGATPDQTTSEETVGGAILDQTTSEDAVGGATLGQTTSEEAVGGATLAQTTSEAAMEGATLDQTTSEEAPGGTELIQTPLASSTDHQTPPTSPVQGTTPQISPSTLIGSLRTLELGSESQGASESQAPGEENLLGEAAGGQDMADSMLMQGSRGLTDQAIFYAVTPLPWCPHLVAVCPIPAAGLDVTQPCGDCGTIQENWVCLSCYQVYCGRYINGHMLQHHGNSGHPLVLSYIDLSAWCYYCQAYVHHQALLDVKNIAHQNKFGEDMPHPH
Outline: (§1)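 Baculovirus-expressed full-length enzymes (HDAC6 1 nM, FAM-RHKK(Ac)-NH2; HDAC11 10 nM, FAM-RHKK(tri-fluor-Ac)-NH2), 2 μM substrate, HEPES pH 7.5, 25°C, 12-point 3× dilutions. Product/substrate separated by microfluidic mobility shift after SDS quench; IC50 from 4-parameter fit, reported as +/++/+++ bins.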

[2] = target: T2, Full length human recombinant HDAC11 (Homo sapiens, UniProt Q96DB2); assay: In vitro histone deacetylase assay, enzymatic HDAC11 (electrophoretic mobility shift assay); assay type: biochemical; details: 10 nM HDAC11; 2 μM peptide substrate FAM-RHKK(tri-fluor-Ac)—NH2; 25° C.; 12 concentrations; read-out: HDAC11 Activity Range (IC50)
T2 construct: Full length human recombinant HDAC6 and HDAC11 proteins were expressed in baculoviral system
T2 sequence (Q96DB2 1-347): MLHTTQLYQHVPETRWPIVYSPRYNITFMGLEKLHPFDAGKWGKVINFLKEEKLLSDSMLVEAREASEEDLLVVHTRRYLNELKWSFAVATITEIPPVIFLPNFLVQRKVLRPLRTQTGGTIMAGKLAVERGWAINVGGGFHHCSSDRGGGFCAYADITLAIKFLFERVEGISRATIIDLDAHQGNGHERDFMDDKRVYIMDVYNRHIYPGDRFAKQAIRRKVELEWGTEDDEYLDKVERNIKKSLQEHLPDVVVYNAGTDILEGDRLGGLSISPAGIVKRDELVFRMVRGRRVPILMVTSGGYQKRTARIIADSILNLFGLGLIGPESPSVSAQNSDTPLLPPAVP
Outline: as §1

| Compound | IC50 [1] [nM] | IC50 [2] [nM] |
| --- | --- | --- |
| O=C(NO)c1ccc2c(c1)C[C@@]1(CC2)CC(=O)N(c2ccccc2)C1 [Compound I-132, (S)—N-hydroxy-5′-oxo-1′-phenyl-3,4-dihydro-1H-spiro[naphthalene-2,3′-pyrrolidine]-7-carboxamide] | ≤ 100 | > 500 |
| O=C(NO)c1ccc2c(c1)C[C@@]1(CC2)CCN(Cc2ccc(Cl)cn2)C1=O [Compound I-39, (S)-1′-((5-chloropyridin-2-yl)methyl)-N-hydroxy-2′-oxo-3,4-dihydro-1H-spiro[naphthalene-2,3′-pyrrolidine]-7-carboxamide] | ≤ 100 | > 500 |
| O=C(NO)c1ccc2c(c1)C[C@@]1(CC2)CCN(Cc2ccc(OC(F)(F)F)cc2)C1=O [Compound I-73, (S)—N-hydroxy-2′-oxo-1′-(4-(trifluoromethoxy)benzyl)-3,4-dihydro-1H-spiro[naphthalene-2,3′-pyrrolidine]-7-carboxamide] | ≤ 100 | > 500 |
| O=C(NO)c1ccc2c(c1)C[C@]1(CC2)CCN(Cc2ccccc2C(F)(F)F)C1=O [Compound I-88, (R)—N-hydroxy-2′-oxo-1′-(2-(trifluoromethyl)benzyl)-3,4-dihydro-1H-spiro[naphthalene-2,3′-pyrrolidine]-7-carboxamide] | ≤ 100 | ≤ 100 |
| O=C(NO)c1ccc2c(c1)C[C@]1(CC2)CC(=O)N(CC(F)(F)F)C1 [Compound I-149, (R)—N-hydroxy-5′-oxo-1′-(2,2,2-trifluoroethyl)-3,4-dihydro-1H-spiro[naphthalene-2,3′-pyrrolidine]-7-carboxamide] | ≤ 100 | > 500 |
| O=C(NO)c1ccc2c(c1)C[C@@]1(CC2)CCN(Cc2ccccc2OC(F)F)C1=O [Compound I-78, (S)-1′-(2-(difluoromethoxy)benzyl)-N-hydroxy-2′-oxo-3,4-dihydro-1H-spiro[naphthalene-2,3′-pyrrolidine]-7-carboxamide] | ≤ 100 | > 500 |
| Cc1nn(C)cc1N1CC[C@]2(CCc3ccc(C(=O)NO)cc3C2)C1=O [Compound I-109, (R)-1′-(1,3-dimethyl-1H-pyrazol-4-yl)-N-hydroxy-2′-oxo-3,4-dihydro-1H-spiro[naphthalene-2,3′-pyrrolidine]-7-carboxamide] | ≤ 100 | > 500 |
| O=C(NO)c1ccc2c(c1)C[C@]1(CC2)CCN(c2ccc3nccn3c2)C1=O [Compound I-110, (R)—N-hydroxy-1′-(imidazo[1,2-a]pyridin-6-yl)-2′-oxo-3,4-dihydro-1H-spiro[naphthalene-2,3′-pyrrolidine]-7-carboxamide] | ≤ 100 | 100 to 500 |
| O=C(NO)c1ccc2c(c1)C[C@]1(CC2)CCN(c2cccc3c2OCC3)C1=O [Compound I-108, (R)-1′-(2,3-dihydrobenzofuran-7-yl)-N-hydroxy-2′-oxo-3,4-dihydro-1H-spiro[naphthalene-2,3′-pyrrolidine]-7-carboxamide] | ≤ 100 | > 500 |
| O=C(NO)c1ccc2c(c1)C[C@@]1(CC2)CCN(CC2CCOCC2)C1=O [Compound I-57, (S)—N-hydroxy-2′-oxo-1′-((tetrahydro-2H-pyran-4-yl)methyl)-3,4-dihydro-1H-spiro[naphthalene-2,3′-pyrrolidine]-7-carboxamide] | ≤ 100 | > 500 |
| COc1ccc(CCN2CCC3(CCc4ccc(C(=O)NO)cc4C3)C2=O)cc1 (centres unmarked) [Compound I-20, N-hydroxy-1′-(4-methoxyphenethyl)-2′-oxo-3,4-dihydro-1H-spiro[naphthalene-2,3′-pyrrolidine]-7-carboxamide] | ≤ 100 | 100 to 500 |
| O=C(NO)c1ccc2c(c1)C[C@]1(CC2)CCN(Cc2ccccc2OC(F)F)C1=O [Compound I-105, (R)-1′-(2-(difluoromethoxy)benzyl)-N-hydroxy-2′-oxo-3,4-dihydro-1H-spiro[naphthalene-2,3′-pyrrolidine]-7-carboxamide] | ≤ 100 | ≤ 100 |
| O=C(NO)c1ccc2c(c1)CC1(CC2)CCN(Cc2ccncc2)C1=O (centres unmarked) [Compound I-22, N-hydroxy-2′-oxo-1′-(pyridin-4-ylmethyl)-3,4-dihydro-1H-spiro[naphthalene-2,3′-pyrrolidine]-7-carboxamide] | ≤ 100 | > 500 |
| O=C(NO)c1ccc2c(c1)C[C@@]1(CC2)CCN(c2ccc3c(c2)OCO3)C1=O [Compound I-115, (S)-1′-(benzo[d][1,3]dioxol-5-yl)-N-hydroxy-2′-oxo-3,4-dihydro-1H-spiro[naphthalene-2,3′-pyrrolidine]-7-carboxamide] | ≤ 100 | > 500 |
| O=C(NO)c1ccc2c(c1)C[C@@]1(CC2)CCN(c2ccc(Oc3ccccc3)cc2)C1=O [Compound I-116, (S)—N-hydroxy-2′-oxo-1′-(4-phenoxyphenyl)-3,4-dihydro-1H-spiro[naphthalene-2,3′-pyrrolidine]-7-carboxamide] | ≤ 100 | > 500 |
| O=C(NO)c1ccc2c(c1)C[C@]1(CC2)CCN(c2cnc3ccccc3c2)C1=O [Compound I-107, (R)—N-hydroxy-2′-oxo-1′-(quinolin-3-yl)-3,4-dihydro-1H-spiro[naphthalene-2, 3′-pyrrolidine]-7-carboxamide] | ≤ 100 | ≤ 100 |
| O=C(NO)c1ccc2c(c1)C[C@]1(CC2)CCN(c2ccc(Oc3ccccc3)cc2)C1=O [Compound I-106, (R)—N-hydroxy-2′-oxo-1′-(4-phenoxyphenyl)-3,4-dihydro-1H-spiro[naphthalene-2,3′-pyrrolidine]-7-carboxamide] | ≤ 100 | ≤ 100 |
| COCCn1c(N2CC[C@]3(CCc4ccc(C(=O)NO)cc4C3)C2=O)nc2ccccc21 [Compound I-34, (R)—N-hydroxy-1′-(1-(2-methoxyethyl)-1H-benzo[d]imidazol-2-yl)-2′-oxo-3,4-dihydro-1H-spiro[naphthalene-2,3′-pyrrolidine]-7-carboxamide] | ≤ 100 | ≤ 100 |
| CC(C)CCN1CC[C@@]2(CCc3ccc(C(=O)NO)cc3C2)C1=O [Compound I-54, (S)—N-hydroxy-1′-isopentyl-2′-oxo-3,4-dihydro-1H-spiro[naphthalene-2,3′-pyrrolidine]-7-carboxamide] | ≤ 100 | > 500 |
| O=C(NO)c1ccc2c(c1)CC1(CC2)CCN(C(=O)C2CCCCC2)C1 (centres unmarked) [Compound I-4, 1′-(cyclohexanecarbonyl)-N-hydroxy-3,4-dihydro-1H-spiro[naphthalene-2,3′-pyrrolidine]-7-carboxamide] | ≤ 100 | > 500 |
| O=C(NO)c1ccc2c(c1)C[C@@]1(CC2)CCN(Cc2ccccc2Cl)C1=O [Compound I-61, (S)-1′-(2-chlorobenzyl)-N-hydroxy-2′-oxo-3,4-dihydro-1H-spiro[naphthalene-2,3′-pyrrolidine]-7-carboxamide] | ≤ 100 | > 500 |
| COCCN1CC[C@@]2(CCc3ccc(C(=O)NO)cc3C2)C1=O [Compound I-56, (S)—N-hydroxy-1′-(2-methoxyethyl)-2′-oxo-3,4-dihydro-1H-spiro[naphthalene-2,3′-pyrrolidine]-7-carboxamide] | ≤ 100 | > 500 |
